This test deals with T1, calcium receptor (CasR) (Homo sapiens, UniProt P41180).
T1 construct: expressed in transfected cells; host or cells: HEK 293
T1 sequence (P41180 20-1078): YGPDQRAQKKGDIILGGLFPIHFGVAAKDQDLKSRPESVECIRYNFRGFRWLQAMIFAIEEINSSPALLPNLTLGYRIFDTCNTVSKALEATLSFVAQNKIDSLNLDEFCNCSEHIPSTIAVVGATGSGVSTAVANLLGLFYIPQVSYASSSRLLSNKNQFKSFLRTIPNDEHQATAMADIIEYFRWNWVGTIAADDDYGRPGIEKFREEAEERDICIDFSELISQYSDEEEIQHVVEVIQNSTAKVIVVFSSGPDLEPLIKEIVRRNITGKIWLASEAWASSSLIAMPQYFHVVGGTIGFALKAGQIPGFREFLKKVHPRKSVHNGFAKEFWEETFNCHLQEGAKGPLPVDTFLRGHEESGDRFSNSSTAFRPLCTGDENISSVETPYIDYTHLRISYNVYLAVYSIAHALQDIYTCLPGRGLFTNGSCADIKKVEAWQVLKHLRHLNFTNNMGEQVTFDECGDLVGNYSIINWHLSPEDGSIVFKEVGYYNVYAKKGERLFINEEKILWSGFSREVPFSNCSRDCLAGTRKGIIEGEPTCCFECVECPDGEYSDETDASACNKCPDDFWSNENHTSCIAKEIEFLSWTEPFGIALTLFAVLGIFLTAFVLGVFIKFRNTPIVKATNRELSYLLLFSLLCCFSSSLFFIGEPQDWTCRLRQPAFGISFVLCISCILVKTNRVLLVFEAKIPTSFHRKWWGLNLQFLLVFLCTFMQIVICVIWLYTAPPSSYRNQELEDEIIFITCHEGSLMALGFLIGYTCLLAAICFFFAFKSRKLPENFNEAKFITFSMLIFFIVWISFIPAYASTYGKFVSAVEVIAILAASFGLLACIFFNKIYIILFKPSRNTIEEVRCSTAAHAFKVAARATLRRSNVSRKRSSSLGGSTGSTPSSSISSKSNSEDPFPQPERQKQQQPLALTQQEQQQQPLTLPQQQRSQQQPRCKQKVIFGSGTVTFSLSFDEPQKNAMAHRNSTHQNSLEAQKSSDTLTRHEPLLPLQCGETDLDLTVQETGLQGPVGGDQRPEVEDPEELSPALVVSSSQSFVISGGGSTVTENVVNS
Briefly: FLIPR Assay for Evaluating the Potency and Selectivity of Test Compounds. It counts as cell-based. Particulars: HEK 293 cells expressing CasR; 30 minutes pre-incubation; stimulation by 1.7 mM Ca2+; read 42 seconds after stimulation. An excerpt: FLIPR Assay for Evaluating the Potency and Selectivity of Test Compounds
Human kidney cell (HEK 293) expressing the calcium receptor (CasR) are used to detect antagonists of the receptor using Fluorometric imaging plate reader (FLIPR, Molecular Devices, Sunnyvale Calif.). Receptor activation by extracellular calcium results in the release of calcium from intracellular stores into the cytosol. A fluorescent indicator (Fluo-4) is internalized by the cells from growth media and interacts with calcium released into the cytosol to provide a means of quantifying intracellular Ca^2+ levels and receptor agonism/antagonism. Fluorescence intensity is detected by the FLIPR CCD camera and traced as a function of time. Potential antagonists are identified by their ability to decrease this fluorescent response.
Prior to the addition of test compound cells are washed with a 10 mM HEPES buffer solution. The test compound, for example the compound of Example 1, is added at various doses (from 1 µM to 3 nM) and pre-incubated with cells for 30 minutes followed by stimulation of the CasR by the addition of 1.7 mM Ca^2+. IC50 values are based on the ability of the cells to inhibit the Ca^2+ induced increase in intracellular Ca^2+. Fluorescence signal is read 42 seconds after the stimulation of the CasR by the addition of 1.7 mM Ca^2+.
The following table provides FLIPR IC50 data for the specified Examples. The IC50s are reported as micromolar concentration with n being the number of times the particular compound was assayed.
For `CC(=O)Nc1cccnc1-c1nc2ccnc(C(F)(F)F)c2c(=O)n1CCc1ccccc1F` [Example 52, N-(2-(3-(2-fluorophenethyl)-4-oxo-5-(trifluoromethyl)-3,4-dihydropyrido[4,3-d]pyrimidin-2-yl)pyridin-3-yl)acetamide], the IC50 turned out to be 0.23 µM.

Turning to `C[C@H](Cc1ccccc1)n1c(-c2cscn2)nc2ccnc(C(F)(F)F)c2c1=O` [Example 53, (R)-3-(1-phenylpropan-2-yl)-2-(thiazol-4-yl)-5-(trifluoromethyl)pyrido[4,3-d]pyrimidin-4(3H)-one], the IC50 came out at 0.26 µM.

For the molecule `O=c1c2c(C(F)(F)F)nccc2nc(-c2cscn2)n1CCc1ccccc1` [Example 54, 3-phenethyl-2-(thiazol-4-yl)-5-(trifluoromethyl)pyrido[4,3-d]pyrimidin-4(3H)-one], the IC50 came out at 0.71 µM.

`COc1ccccc1CCn1c(-c2ccccc2O)nc2ccnc(C(F)(F)F)c2c1=O` [Example 55, 3-(2-methoxyphenethyl)-2-(2-hydroxyphenyl)-5-(trifluoromethyl)pyrido[4,3-d]pyrimidin-4(3H)-one]: the IC50 is 0.72 µM.

Take `O=c1c2c(C(F)(F)F)nccc2nc(-c2cscn2)n1CCc1ccccc1F` [Example 56, 3-(2-fluorophenethyl)-2-(thiazol-4-yl)-5-(trifluoromethyl)pyrido[4,3-d]pyrimidin-4(3H)-one]: the IC50 stood at 1.54 µM.

Consider `C[C@H](Cc1ccccc1)n1c(C2CCCC2)nc2ccnc(C(F)(F)F)c2c1=O` [Example 57, (R)-2-cyclopentyl-3-(1-phenylpropan-2-yl)-5-(trifluoromethyl)pyrido[4,3-d]pyrimidin-4(3H)-one], for which the IC50 turned out to be 1.67 µM.

Consider `CC(C)c1nc2ccnc(C(F)(F)F)c2c(=O)n1CCc1ccccc1` [Example 58, 2-isopropyl-3-phenethyl-5-(trifluoromethyl)pyrido[4,3-d]pyrimidin-4(3H)-one], for which the IC50 was determined as 4.68 µM.

Take `O=c1c2c(C(F)(F)F)nccc2nc(C2CCCC2)n1CCc1ccccc1` [Example 59, 2-cyclopentyl-3-phenethyl-5-(trifluoromethyl)pyrido[4,3-d]pyrimidin-4(3H)-one]: the concentration for half-maximal inhibition (IC50) came out at 7.79 µM.

`COc1ccccc1CCn1c(-c2cscn2)nc2ccnc(C(F)(F)F)c2c1=O` [Example 60, 3-(2-methoxyphenethyl)-2-(thiazol-4-yl)-5-(trifluoromethyl)pyrido[4,3-d]pyrimidin-4(3H)-one]: the IC50 was found to be 23.2 µM.

On to `O=c1c2c(C(F)(F)F)nccc2nc(-c2cscn2)n1CCC1CCCCC1` [Example 61, 3-(2-cyclohexylethyl)-2-(thiazol-4-yl)-5-(trifluoromethyl)pyrido[4,3-d]pyrimidin-4(3H)-one], for which the 50% inhibitory concentration (IC50) was 0.5 µM.

As to `N#Cc1ccccc1-c1nc2ccnc(C(F)(F)F)c2c(=O)n1CCC1CCCCC1` [Example 62, 2-(3-(2-cyclohexylethyl)-4-oxo-5-(trifluoromethyl)-3,4-dihydropyrido[4,3-d]pyrimidin-2-yl)benzonitrile], the IC50 was found to be 4.63 µM.

Consider `Nc1cccnc1-c1nc2ccnc(C(F)(F)F)c2c(=O)n1CCc1ccccc1` [Example 63, 2-(3-aminopyridin-2-yl)-3-phenethyl-5-(trifluoromethyl)pyrido[4,3-d]pyrimidin-4(3H)-one], for which the half-maximal inhibitory concentration (IC50) worked out at 0.77 µM.

In the case of `CS(=O)(=O)Nc1cccnc1-c1nc2ccnc(C(F)(F)F)c2c(=O)n1CCc1ccccc1` [Example 64, N-(2-(4-oxo-3-phenethyl-5-(trifluoromethyl)-3,4-dihydropyrido[4,3-d]pyrimidin-2-yl)pyridin-3-yl)methanesulfonamide], the IC50 is 61.8 µM.

With `CC(Cc1ccccc1F)n1c(-c2cscn2)nc2ccnc(C(F)(F)F)c2c1=O` (stereo not drawn) [Example 65, 3-(1-(2-fluorophenyl)propan-2-yl)-2-(thiazol-4-yl)-5-(trifluoromethyl)pyrido[4,3-d]pyrimidin-4(3H)-one], the IC50 was found to be 10.5 µM.

Turning to `CC(C)CCn1c(-c2ncccc2O)nc2ccnc(C(F)(F)F)c2c1=O` [Example 66, 2-(3-hydroxypyridin-2-yl)-3-isopentyl-5-(trifluoromethyl)pyrido[4,3-d]pyrimidin-4(3H)-one], the IC50 amounted to 36.2 µM.

On to `O=c1c2c(C(F)(F)F)nccc2nc(-c2ncccc2O)n1CC1CCOCC1` [Example 67, 2-(3-hydroxypyridin-2-yl)-3-((tetrahydro-2H-pyran-4-yl)methyl)-5-(trifluoromethyl)pyrido[4,3-d]pyrimidin-4(3H)-one], for which the IC50 is more than 1 µM.

Turning to `O=c1c2c(C(F)(F)F)nccc2nc(-c2ncccc2O)n1CCC1CCOCC1` [Example 68, 2-(3-hydroxypyridin-2-yl)-3-(2-(tetrahydro-2H-pyran-4-yl)ethyl)-5-(trifluoromethyl)pyrido[4,3-d]pyrimidin-4(3H)-one], the IC50 is more than 1 µM.

`COc1ccc(F)c(CCn2c(-c3ncccc3O)nc3ccnc(C(F)(F)F)c3c2=O)c1` [Example 69, 3-(2-fluoro-5-methoxyphenethyl)-2-(3-hydroxypyridin-2-yl)-5-(trifluoromethyl)pyrido[4,3-d]pyrimidin-4(3H)-one]: the 50% inhibitory concentration (IC50) was 66.9 µM.

Consider `COc1cccc(CCn2c(-c3ncccc3O)nc3ccnc(C(F)(F)F)c3c2=O)c1F` [Example 70, 3-(2-fluoro-3-methoxyphenethyl)-2-(3-hydroxypyridin-2-yl)-5-(trifluoromethyl)pyrido[4,3-d]pyrimidin-4(3H)-one], for which the IC50 came out at 61.9 µM.

As for `N#Cc1ccccc1-c1nc2cccc(C(F)(F)F)c2c(=O)n1CCc1ccccc1F` [Example 71, 2-(3-(2-fluorophenethyl)-4-oxo-5-(trifluoromethyl)-3,4-dihydroquinazolin-2-yl)benzonitrile], the IC50 came to 0.42 µM.

Turning to `O=C(Nc1cccnc1-c1nc2ccnc(C(F)(F)F)c2c(=O)n1CCc1ccccc1F)C(F)(F)F` [Example 72, N-(2-(3-(2-fluorophenethyl)-4-oxo-5-(trifluoromethyl)-3,4-dihydropyrido[4,3-d]pyrimidin-2-yl)pyridin-3-yl)-2,2,2-trifluoroacetamide], the concentration for half-maximal inhibition (IC50) worked out at 0.94 µM.

For `C[C@H](Cc1ccccc1)n1c(-c2ncccc2NC(=O)C(F)(F)F)nc2ccnc(C(F)(F)F)c2c1=O` [Example 73, (R)-2,2,2-trifluoro-N-(2-(4-oxo-3-(1-phenylpropan-2-yl)-5-(trifluoromethyl)-3,4-dihydropyrido[4,3-d]pyrimidin-2-VI)pyridin-3-VI)acetamide], the IC50 was found to be 0.2 µM.

Regarding `O=c1c2c(C(F)(F)F)nccc2nc(-c2ncccc2O)n1C1CCCCC1` [Example 74, 3-cyclohexyl-2-(3-hydroxypyridin-2-yl)-5-(trifluoromethyl)pyrido[4,3-d]pyrimidin-4(3H)-one], the IC50 turned out to be 47.8 µM.

For `O=c1c2c(C(F)(F)F)nccc2nc(-c2ncccc2C(F)(F)F)n1CCc1ccccc1` [Example 76, 3-Phenethyl-5-trifluoromethyl-2-(3-trifluoromethyl-pyridin-2-yl)-3H-pyrido[4,3-d]pyrimidin-4-one], the half-maximal inhibitory concentration (IC50) is 6.3 µM.

Regarding `C[C@H](Cc1ccccc1)n1c(-c2ncccc2C(F)(F)F)nc2ccnc(C(F)(F)F)c2c1=O` [Example 77], the IC50 is 0.7 µM.

With `Nc1scnc1-c1nc2ccnc(C(F)(F)F)c2c(=O)n1CCc1ccccc1` [Example 78, 2-(5-aminothiazol-4-yl)-3-phenethyl-5-(trifluoromethyl)pyrido[4,3-d]pyrimidin-4(3H)-one], the IC50 came out at 9.83 µM.

`O=c1c2c(C(F)(F)F)nccc2nc(-c2ccccc2C(F)F)n1CCc1ccccc1` [Example 79, 2-(2-(difluoromethyl)phenyl)-3-phenethyl-5-(trifluoromethyl)pyrido[4,3-d]pyrimidin-4(3H)-one]: the half-inhibitory concentration (IC50) is 0.39 µM.

The term IC50 denotes the midpoint of a concentration-inhibition curve.

(Values after patent US7829572B2 (Pfizer Inc, priority 2006, dated 2010).)
